Legend:
Vibrio fischeri [1] = experiment: Growth studies: luminescence of Vibrio fischeri in vitro; type: cell-based
Vibrio fischeri [2] = experiment: Quantification of gene expression during luminescence; type: cell-based
[3] = NMR diffusion experiments, binding affinity of cyclodextrin for N-octanoyl-homoserine lactone; conditions: based on dissociation constants calculated from the diffusion data
Description: To confirm that cyclodextrin was the active quenching agent in the model system, NMR diffusion experiments were performed.

## OC[C@H]1O[C@@H]2O[C@H]3[C@H](O)[C@@H](O)[C@@H](O[C@H]4[C@H](O)[C@@H](O)[C@@H](O[C@H]5[C@H](O)[C@@H](O)[C@@H](O[C@H]6[C@H](O)[C@@H](O)[C@@H](O[C@H]7[C@H](O)[C@@H](O)[C@@H](O[C@H]8[C@H](O)[C@@H](O)[C@@H](O[C@H]1[C@H](O)[C@H]2O)O[C@@H]8CO)O[C@@H]7CO)O[C@@H]6CO)O[C@@H]5CO)O[C@@H]4CO)O[C@@H]3CO [cyclodextrin, β-Cyclodextrin]
Vibrio fischeri [1]
  luminescence: reduce luminescence
Vibrio fischeri [2]
  production of autoinducers and luciferase (gene expression): decrease in the production of autoinducers and luciferase
[3]
  binding of N-octanoyl-homoserine lactone (complex formation): able to bind cyclodextrin and form a complex

— patent US10717788B2, “Cyclodextrin functionalized nanoparticles for quenching bacterial communications” (University of South Carolina, priority 2014, dated 2020)
